{"source": "patent US20230393140A1", "about": "“BINDING ASSAYS INVOLVING A PLURALITY OF SYNTHETIC COMPOUNDS, TARGETS, AND COUNTER TARGETS” (SRI International, priority 2020, published 2023)", "key": {"proteinase K": {"molecular_target": "proteinase K (Parengyodontium album, UniProt P06873)", "sequence (P06873 106-384, species assumed)": "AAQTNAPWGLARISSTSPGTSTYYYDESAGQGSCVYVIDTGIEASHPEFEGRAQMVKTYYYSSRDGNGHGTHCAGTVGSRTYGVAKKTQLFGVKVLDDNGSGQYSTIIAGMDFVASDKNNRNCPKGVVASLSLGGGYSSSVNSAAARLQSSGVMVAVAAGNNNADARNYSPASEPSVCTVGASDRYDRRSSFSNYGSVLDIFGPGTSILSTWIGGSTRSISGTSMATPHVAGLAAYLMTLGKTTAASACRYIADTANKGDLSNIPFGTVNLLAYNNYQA", "experiment": "Proteinase K stability assay", "type": "in vitro ADME", "details": "37 degrees C; aliquots at 0, 1.5 and 16 hours; LC-MS", "description": "For proteinase K stability, solutions of each tested compound (200 μM) in 10% DMSO and 20 mM Tris HCl at pH 8 were prepared. Proteinase K was added to a final concentration of […] and 100 μM of the tested compound in 5% DMSO and 10 mM Tris HCl at pH 8. The solutions were incubated at 37 degrees C. and aliquots after 0 hours, 1.5 hours and 16 hours were analyzed by LC-MS."}, "[1]": {"type": "in vitro ADME", "details": "17 h", "description": "For human plasma stability, lyophilized human plasma was reconstituted in sterile water for injection, aliquoted into 200 uL aliquots and stored frozen at −80 degrees C. prior to the stability studies. For the stability studies three aliquots per NNP were thawed at room temperature. An additional set of three aliquots for a positive control peptide (Angiotensin I) were also thawed. The incubations for the plasma stability were initiated by mixing 2 uL of a 2 mM stock solution of NNP IL6R-87-8 or positive control in DMSO with the 200 uL thawed plasma aliquot. After briefly vortex-mixing, 50 uL zero-time-point samples were removed, mixed with 50 uL of water and 400 uL of acetonitrile and frozen on dry ice until all time point samples had been collected. The samples were incubated at 37 degrees C. with samples removed and water/acetonitrile added at 1 hour, 3 hours, and 17 hours. Proteins were precipitated by centrifuging the samples at 17,000 G, 4 degrees C. for 1 hour. The supernatants were removed and concentrated in a centrifugal vacuum concentrator (GeneVac Genie II) at 45 degrees C. until the volume had been reduced to around 60 uL. […]"}, "IL-6R": {"molecular_target": "T1, IL-6R (Homo sapiens, UniProt P08887)", "T1 construct": "purchased Creative Biomart IL6R-584H", "T1 sequence (P08887 20-355 limits assumed)": "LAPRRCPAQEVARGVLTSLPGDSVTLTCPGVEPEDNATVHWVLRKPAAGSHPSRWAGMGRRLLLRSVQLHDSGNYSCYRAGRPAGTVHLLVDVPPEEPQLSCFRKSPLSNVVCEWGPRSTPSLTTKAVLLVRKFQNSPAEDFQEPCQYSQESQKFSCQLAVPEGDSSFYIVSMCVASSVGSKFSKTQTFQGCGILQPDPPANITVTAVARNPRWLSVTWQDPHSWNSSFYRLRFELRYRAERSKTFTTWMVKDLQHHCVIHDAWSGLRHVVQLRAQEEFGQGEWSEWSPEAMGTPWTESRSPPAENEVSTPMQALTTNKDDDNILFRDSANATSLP", "experiment": "MST binding affinity of resynthesized NNP hits to IL-6R", "details": "IL-6R; ester versus amide amino acid-PAM bond polymers, library NNP2", "outline": "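Microscale thermophoresis at room temperature, triplicate, 15, 30 and 45 min incubations; targets labeled with RED-NHS 647 dye. Buffers (all 20 mM HEPES pH 7.4 unless noted): IL-6 150 mM KCl, 10 mM MgCl2, 0.1% Pluronic F-127; IL-6R 150 mM NaCl, 10 mM MgCl2, 0.05% Tween-20; TNFα 10 mM HEPES, 150 mM NaCl, 10 mM MgCl2, 0.05% Polysorbate-20; ASGPR adds 2 mM CaCl2, 0.05% Pluronic F-127, 1 mM DTT.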"}}, "note": "Numbered stars: 1 amine (or outer) side, 2 acyl side, 3 side chain; on linkers, the order of the positions; unused ones are H or OH. Square brackets hold non-standard residues; d marks the D form. Peptide text beside a SMILES is read from it. * marks the point of attachment. 5FAM = O=C1OC2(c3ccc(O)cc3Oc3cc(O)ccc32)c2ccc(C(=O)*)cc21; NHCH2C6H4(4-CH2CONH2) = NC(=O)Cc1ccc(CN*)cc1; X1 = O=C(Cc1ccc(CN[*:1])cc1)[*:2]", "data": [{"smiles": "CC(C)C[C@H](NC(=O)[C@@H](CCCNC(=N)N)NC(=O)[C@@H](C)NC(=O)Cc1ccc(CNC(=O)[C@H](CC(C)C)NC(=O)[C@@H](CCCNC(=N)N)NC(=O)[C@@H](CCC(=O)O)NC(=O)Cc2ccc(CNC(=O)[C@H](C)NC(=O)[C@@H](CCCCN)NC(=O)[C@@H](Cc3ccc(O)cc3)NC(=O)Cc3ccc(CNC(=O)[C@H](C)NC(=O)[C@@H](CCCNC(=N)N)NC(=O)[C@@H](Cc4ccccc4)NC(=O)Cc4ccc(CNC(=O)[C@H](Cc5ccccc5)NC(=O)[C@@H](CO)NC(=O)[C@@H](CCCNC(=N)N)NC(=O)Cc5ccc(CNC(=O)[C@@H](NC(=O)[C@@H](CO)NC(=O)[C@@H](Cc6ccc(O)cc6)NC(=O)Cc6ccc(CNC(=O)[C@H](Cc7ccccc7)NC(=O)[C@H](NC(=O)[C@@H](CC(N)=O)NC(=O)c7ccc8c(c7)C(=O)OC87c8ccc(O)cc8Oc8cc(O)ccc87)C(C)C)cc6)C(C)C)cc5)cc4)cc3)cc2)cc1)C(=O)NCc1ccc(CC(=O)N2CCC[C@@H]2C(=O)N[C@H](CCCNC(=N)N)C(=O)N[C@@H](C)C(=O)NCc2ccc(CC(=O)N[C@H](Cc3ccccc3)C(=O)N[C@H](CCCCN)C(=O)NCC(=O)NCc3ccc(CC(N)=O)cc3)cc2)cc1", "note": "[IL6R-87-8, Fluorescein-(D)Asn-(D)Val-(L)Phe-PAM-(D)Tyr-(D)Ser-(L)Val-PAM-(D)Arg-(D)Ser-(L)Phe-PAM-(D)Phe-(D)Arg-(L)Ala-PAM-(D)Tyr-(D)Lys-(L)Ala-PAM-(D)Glu-(D)Arg-(L)Leu-PAM-(D)Ala-(D)Arg- (L)Leu-PAM-(D)Pro-(D)Arg-(L)Ala-PAM-(D)Phe-(D)Lys-Gly-PAM] (5FAM-[dN][dV]F[X1][dY][dS]V[X1][dR][dS]F[X1][dF][dR]A[X1][dY][dK]A[X1][dE][dR]L[X1][dA][dR]L[X1][dP][dR]A[X1][dF][dK]G-{NHCH2C6H4(4-CH2CONH2)})", "values": [{"measurement": "Stability in the presence of proteinase K", "setting": "proteinase K", "result": "minimal degradation"}, {"measurement": "Stability in human plasma", "setting": "[1]", "result": "stayed largely intact"}, {"measurement": "Kd", "setting": "IL-6R", "result": 620, "unit": "pM"}]}]}
